Data as given in paper PMC10578023 (Cell Communication and Signaling : CCS, 2023).

What was measured:
JAK1 JH2 domain = JAK1 JH2 domain (Homo sapiens, UniProt P23458); experiment: JAK1 JH2 binding assay
[1] = Liver microsome metabolic stability; format: in vitro ADME
Procedure: (§1) The ADME properties of QL-1200186 in vitro were measured by the following assays: Caco-2 permeability assay, CYP inhibition assay, protein binding assay, and liver microsome assay. Each assay was performed as previously described.

TYK2/JAK1 [2] = experiment: IFNα HEK293 (HEK-Blue IFN-α/β) reporter gene assay; format: cell-based, human
Procedure: HEK-Blue™ IFN-α/β cells were used to determine the activity of QL-1200186. After 24 h of incubation with QL-1200186, HEK-Blue™ IFN-α/β cells (Invivogen; NKB-IFNAB) were stimulated with human IFNα (200 U/mL; catalog number: 11200–2; PBL Assay Science; Piscataway, NJ, USA) for 6 h. Stimulation of HEK-Blue IFN-α/β cells with human IFNα activates the JAK/STAT/ISGF3 pathway and subsequently induces the production of SEAP. Levels of SEAP in the supernatant were readily assessable using QUANTI-Blue™ Solution (InvivoGen, San Diego, CA, USA).

human monocytes = experiment: IFNα-induced differentiation of human monocytes to dendritic cells (CD80, CD83, CD86); format: cell-based; conditions: 5, 20 or 100 nM, 6 days
Procedure: First, monocytes in human PBMCs were isolated using an EasySep™ Human CD14 Positive Selection Kit II (17858; Stemcell Technologies, Vancouver, Canada). […] The media were half-changed on days 3 and 5. On day 6, cells were collected and stained with BV421 aqua fluorescent reactive dye (L34966A; Invitrogen), FITC mouse anti-human CD80 (555683; BD Biosciences), PE mouse anti-human CD86 (560957; BD Biosciences) or BUV737 mouse anti-human CD83 (612823; BD Biosciences) antibodies for 20 min. After staining, cells were washed twice and analyzed by flow cytometry.

TYK2/JAK1 [3] = experiment: IL-23-induced pSTAT3 in human Th17 cells; format: cell-based
Procedure: Human naïve CD4^+ T cells were separated using a human naïve CD4^+ T-cell isolation kit (StemCell, #17,852), and then cells were stimulated with anti-CD3 monoclonal antibody and anti-CD28 monoclonal antibody for 7–10 days under the following Th17-skewing treatments: IL-6, IL-23, IL-1β and transforming growth factor-β. Half of the medium was replaced with fresh medium containing a stimulant to induce differentiation every other day. Th17 cells were incubated overnight at 37 °C for deactivation. Cells were reinoculated on 96-well plates and cocultured with gradient-diluted QL-1200186 for 1 h and then stimulated with recombinant human IL-23 (ACRO: #IL-B-H52 WS) for 0.5 h. Cells were collected, and phosphorylation of STAT3 was quantified according to the MFI.

[4] = dogs, data not shown
JAK2/JAK2 = experiment: GM-CSF-stimulated pSTAT5 in U937 cells; format: cell-based, human
Procedure: With respect to GM-CSF-stimulated JAK2 activation in U937 cells (Cobioer Biosciences, CBP60277), after 1 h of treatment with QL-1200186, U937 cells were stimulated with GM-CSF (20 ng/mL; C003; Novoprotein, Suzhou, China) for 15 min.
The stimulations stated above were terminated with prewarmed Lyse/Fix Buffer (558,049; BD Biosciences, San Jose, CA, USA) for 10 min. Cells were stained with an anti-cluster of differentiation (CD)3 fluorescein isothiocyanate (FITC) antibody (required for PBMCs but not for the other cell types), washed, and permeabilized on ice using Perm III Buffer (558,050; BD Biosciences) prior to staining with an Alexa Fluor 647 anti-phosphorylated (p)STAT5 (pY694) antibody for 30 min and analyzed by flow cytometry. Phosphorylation of STAT5 was quantified by the median fluorescence intensity (MFI) after gating on the CD3-positive population.

[5] = tested on: panel of 207 kinase proteins; experiment: Kinase selectivity panel, ADP-Glo kinase assay; format: biochemical, human; conditions: 1 μM
Procedure: The selectivity of QL-1200186 was measured using a panel of 207 kinase proteins. QL-1200186 (final concentration = 1 μM) was placed in a 384-well plate. Different kinase solutions were configured in kinase buffer, HEPES (50 mM), MgCl2 (10 mM), 0.01% Brij, dithiothreitol (2 mM), and then transferred to 384-well plates. After incubation for 10 min at RT, the substrate and adenosine triphosphate were added, and the reaction was allowed to continue for 60 min. Kinase selectivity was determined by the ADP-Glo™ Kinase Assay (V9103; Promega, Fitchburg, WI, USA). Finally, a microplate reader (BMG Labtech, Ortenberg, Germany) was used to measure the luminescence signal. After data analysis, heatmaps and kinase selection trees were drawn using Prism 8.0.2 (GraphPad, La Jolla, CA, USA) and KinMap (www.kinmap.org/), respectively.

CYP450 1A2 = CYP450 1A2 (Homo sapiens, UniProt P05177); format: in vitro ADME
Procedure: as §1

TYK2/JAK1 [6] = experiment: IFNα-induced pSTAT1 in CD3+ T cells of human PBMCs; format: cell-based
Procedure: The reaction was terminated by collecting cells for surface staining. Cells were stained with anti-CD3 FITC (300406; Biolegend, San Diego, CA, USA), anti-CD19 APC (555415; BD Biosciences) or aqua fluorescent reactive dye BV421 (L34966A; Invitrogen, Carlsbad, CA, USA) antibodies for 20 min. After washing, fixation buffer (557870; BD Biosciences) was added and incubated for 10 min. Cells were washed and permeabilized on ice using Perm III Buffer (558050; BD Biosciences). Cells were stained with PE anti-PSTAT1 antibody (562069; BD Biosciences) for 30 min and analyzed by flow cytometry.

Chain of JAK1 JH2 domain (P23458 583-855 limits assumed): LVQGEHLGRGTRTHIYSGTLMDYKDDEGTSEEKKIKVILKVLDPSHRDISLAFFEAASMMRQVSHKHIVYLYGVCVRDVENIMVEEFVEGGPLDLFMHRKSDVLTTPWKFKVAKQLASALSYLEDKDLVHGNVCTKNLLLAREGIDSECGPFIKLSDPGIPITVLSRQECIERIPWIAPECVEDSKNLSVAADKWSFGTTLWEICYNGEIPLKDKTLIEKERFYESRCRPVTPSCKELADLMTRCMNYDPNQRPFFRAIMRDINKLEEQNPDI
Chain of CYP450 1A2 (P05177 whole entry): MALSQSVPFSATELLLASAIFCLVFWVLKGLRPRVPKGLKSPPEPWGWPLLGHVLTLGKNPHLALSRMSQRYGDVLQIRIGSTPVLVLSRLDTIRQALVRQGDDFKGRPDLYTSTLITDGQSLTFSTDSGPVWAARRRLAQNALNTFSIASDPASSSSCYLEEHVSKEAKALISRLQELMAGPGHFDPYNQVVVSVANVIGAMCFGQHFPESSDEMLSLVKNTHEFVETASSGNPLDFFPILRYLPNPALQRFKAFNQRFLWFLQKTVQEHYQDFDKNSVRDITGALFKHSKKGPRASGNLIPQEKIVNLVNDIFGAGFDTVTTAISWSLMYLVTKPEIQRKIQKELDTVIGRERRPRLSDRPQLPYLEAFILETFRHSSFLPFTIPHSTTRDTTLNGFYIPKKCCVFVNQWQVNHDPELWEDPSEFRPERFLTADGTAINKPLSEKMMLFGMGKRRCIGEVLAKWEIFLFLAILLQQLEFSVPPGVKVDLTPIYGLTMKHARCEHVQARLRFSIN

CNC(=O)c1cnc2cc1Nc1cc(cc(-c3ccn(C)n3)c1OC)CCOCc1cccc(n1)N2 [QL-1200186, 5^6-methoxy-N-methyl-5^5-(1-methyl-1H-pyrazol-3-yl)-8-oxa-2,4-diaza-1(2,6),3(2,4)-dipyridina-5(1,3)-benzenacyclononaphane-3^5-carboxamide]
IC50 (JAK1 JH2 domain): 9.85 nM | Metabolic Stability L.M. T1/2 ([1]; Dog): 1.42 h | Metabolic Stability L.M. T1/2 ([1]; Human): > 3.107 h | Metabolic Stability L.M. T1/2 ([1]; Monkey): 1.2 h | Metabolic Stability L.M. T1/2 ([1]; Mouse): 1.28 h | Metabolic Stability L.M. T1/2 ([1]; Rat): 1.823 h | IC50 (TYK2/JAK1 [2]): 3.9 nM | differentiation and maturation of monocytes into dendritic cells (CD80, CD83, CD86 expression) (human monocytes): significantly inhibited | IC50 (TYK2/JAK1 [3]): 1.03 nM | safety in toxicological studies [4]: excellent safety | GM-CSF-pSTAT5 in U937 (JAK2/JAK2) inhibition (JAK2/JAK2; @10μM): no inhibition @10μM | IC50 (JAK2/JAK2; JAK2/JAK2-dependent, read-out: GM-CSF-stimulated STAT5 phosphorylation IC50): > 10000 nM | inhibition rates for all 207 kinases tested [5]: below 50% | IC50 (CYP450 1A2): > 50000 nM | IC50 (TYK2/JAK1 [6]): 1.61 nM
